Target: T1, purified human HDAC6 (Homo sapiens, UniProt Q9UBN7)
T1 construct: purchased BPS Bioscience 5006
T1 sequence (Q9UBN7 1-1215): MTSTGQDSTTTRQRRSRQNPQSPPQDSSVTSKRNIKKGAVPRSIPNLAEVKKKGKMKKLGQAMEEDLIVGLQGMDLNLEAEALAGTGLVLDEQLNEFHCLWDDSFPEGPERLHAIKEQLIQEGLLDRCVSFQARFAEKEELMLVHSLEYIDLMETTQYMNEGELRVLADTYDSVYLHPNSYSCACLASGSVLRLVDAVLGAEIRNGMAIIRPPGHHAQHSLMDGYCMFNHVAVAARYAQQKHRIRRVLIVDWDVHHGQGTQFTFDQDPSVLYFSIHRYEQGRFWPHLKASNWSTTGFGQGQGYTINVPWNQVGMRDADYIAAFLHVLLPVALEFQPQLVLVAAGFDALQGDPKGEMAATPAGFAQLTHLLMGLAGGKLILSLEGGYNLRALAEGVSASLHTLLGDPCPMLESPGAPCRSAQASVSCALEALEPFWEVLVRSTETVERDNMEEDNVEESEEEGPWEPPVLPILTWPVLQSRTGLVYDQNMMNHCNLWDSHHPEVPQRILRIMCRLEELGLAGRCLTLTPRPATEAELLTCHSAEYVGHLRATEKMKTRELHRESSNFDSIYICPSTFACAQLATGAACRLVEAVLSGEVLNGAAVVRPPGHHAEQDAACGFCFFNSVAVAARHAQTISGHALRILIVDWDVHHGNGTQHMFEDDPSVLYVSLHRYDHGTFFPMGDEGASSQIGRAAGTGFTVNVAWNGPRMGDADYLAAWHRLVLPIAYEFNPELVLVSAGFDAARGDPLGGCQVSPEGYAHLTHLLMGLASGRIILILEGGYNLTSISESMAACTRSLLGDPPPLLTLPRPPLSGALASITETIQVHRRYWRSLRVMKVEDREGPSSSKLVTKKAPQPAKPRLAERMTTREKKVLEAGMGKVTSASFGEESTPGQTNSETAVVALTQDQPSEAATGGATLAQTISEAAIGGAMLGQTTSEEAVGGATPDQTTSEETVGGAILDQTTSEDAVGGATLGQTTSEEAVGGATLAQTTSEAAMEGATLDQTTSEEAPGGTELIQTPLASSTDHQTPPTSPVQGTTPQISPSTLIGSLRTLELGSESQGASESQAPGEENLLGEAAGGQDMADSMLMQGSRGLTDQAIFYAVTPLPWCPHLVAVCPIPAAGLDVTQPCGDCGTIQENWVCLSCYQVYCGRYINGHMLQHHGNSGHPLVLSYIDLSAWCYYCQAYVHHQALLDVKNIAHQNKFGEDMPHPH
Assay: HDAC6 Enzyme Assay
Type: biochemical
Conditions: HDAC6 inhibition at a compound concentration of 0.412 μM; read-out: Percent Inhibition at 0.412 μM
Protocol: To measure the inhibition of HDAC6 activity, purified human HDAC6 (BPS Bioscience; Cat. No. 5006) is incubated with substrate Ac-Arg-Gly-Lys(Ac)-AMC peptide (Bachem Biosciences; Cat. No. I-1925) for 1 hour at 30° C. in the presence of test compounds or vehicle DMSO control. The reaction is stopped with the HDAC inhibitor trichostatin A (Sigma; Cat. No. T8552) and the amount of Arg-Gly-Lys-AMC generated is quantitated by digestion with trypsin (Sigma; Cat. No. T1426) and subsequent measurement of the amount of AMC released using a fluorescent plate reader (Pherastar; BMG Technologies) set at Ex 340 nm and Em 460 nm. Concentration response curves are generated by calculating the fluorescence increase in test compound-treated samples relative to DMSO-treated controls, and enzyme inhibition (IC50) values are determined from those curves.

| inhibition at 0.412 µM | SMILES |
| --- | --- |
| 62% | COc1cccc2cc(C(=O)NC3CCCc4cc(C(=O)NO)ccc43)oc12 (stereo not shown) [Compound I-33, N-{6-[(hydroxyamino)carbonyl]-1,2,3,4-tetrahydronaphthalen-1-yl}-7-methoxy-1-benzofuran-2-carboxamide] |
| 2% | O=C(NO)c1ccc2c(c1)CCCC2NC(=O)c1ccc(-c2ccccc2)cc1 (stereo not shown) [Compound I-34, N-{6-[(hydroxyamino)carbonyl]-1,2,3,4-tetrahydronaphthalen-1-yl}biphenyl-4-carboxamide] |
| 74% | Cc1ccc(-c2cc(C(=O)NC3CCCc4cc(C(=O)NO)ccc43)[nH]n2)cc1 (stereo not shown) [Compound I-35, N-{6-[(hydroxyamino)carbonyl]-1,2,3,4-tetrahydronaphthalen-1-yl}-3-(4-methylphenyl)-1H-pyrazole-5-carboxamide] |
| 26% | COc1ccc2c(CC(=O)NC3CCCc4cc(C(=O)NO)ccc43)coc2c1 (stereo not shown) [Compound I-36, N-hydroxy-5-{[(6-methoxy-1-benzofuran-3-yl)acetyl]amino}-5,6,7,8-tetrahydronaphthalene-2-carboxamide] |
| 36% | Cc1oc(S(=O)(=O)N2CCCCC2)cc1C(=O)NC1CCCc2cc(C(=O)NO)ccc21 (stereo not shown) [Compound I-37, N-{6-[(hydroxyamino)carbonyl]-1,2,3,4-tetrahydronaphthalen-1-yl}-2-methyl-5-(piperidin-1-ylsulfonyl)-3-furamide] |
| 18% | Cc1onc(-c2ccccc2Cl)c1C(=O)NC1CCCc2cc(C(=O)NO)ccc21 (stereo not shown) [Compound I-38, 3-(2-chlorophenyl)-N-{6-[(hydroxyamino)carbonyl]-1,2,3,4-tetrahydronaphthalen-1-yl}-5-methylisoxazole-4-carboxamide] |
| 60% | Cc1ccc2[nH]c(C(=O)NC3CCCc4cc(C(=O)NO)ccc43)cc2c1 (stereo not shown) [Compound I-39, N-{6-[(hydroxyamino)carbonyl]-1,2,3,4-tetrahydronaphthalen-1-yl}-5-methyl-1H-indole-2-carboxamide] |
| 48% | O=C(NO)c1ccc2c(c1)CCCC2NC(=O)c1cc2cc(Cl)ccc2o1 (stereo not shown) [Compound I-40, 5-chloro-N-{6-[(hydroxyamino)carbonyl]-1,2,3,4-tetrahydronaphthalen-1-yl}-1-benzofuran-2-carboxamide] |
| 23% | COc1ccc(C(C(=O)NC2CCCc3cc(C(=O)NO)ccc32)c2ccccc2)cc1 (stereo not shown) [Compound I-41, N-hydroxy-5-{[(4-methoxyphenyl)(phenyl)acetyl]amino}-5,6,7,8-tetrahydronaphthalene-2-carboxamide] |
| 71% | O=C(NO)c1ccc2c(c1)CCCC2NC(=O)c1cc(-c2ccc(F)cc2)n[nH]1 (stereo not shown) [Compound I-43, 3-(4-fluorophenyl)-N-{6-[(hydroxyamino)carbonyl]-1,2,3,4-tetrahydronaphthalen-1-yl}-1H-pyrazole-5-carboxamide] |
| 47% | O=C(NO)c1ccc2c(c1)CCCC2NC(=O)c1cc2ccccc2o1 (stereo not shown) [Compound I-45, N-{6-[(hydroxyamino)carbonyl]-1,2,3,4-tetrahydronaphthalen-1-yl}-1-benzofuran-2-carboxamide] |
| 22% | O=C(NO)c1ccc2c(c1)CCCC2NC(=O)C1(c2ccccc2)CCCC1 (stereo not shown) [Compound I-46, N-hydroxy-5-{[(1-phenylcyclopentyl)carbonyl]amino}-5,6,7,8-tetrahydronaphthalene-2-carboxamide] |
| 82% | Cc1c(C(=O)NC2CCc3cc(C(=O)NO)ccc3C2)cc(-c2ccccc2)n1CCCN1CCOCC1 (stereo not shown) [Compound I-47, N-{6-[(hydroxyamino)carbonyl]-1,2,3,4-tetrahydronaphthalen-2-yl}-2-methyl-1-(3-morpholin-4-ylpropyl)-5-phenyl-1H-pyrrole-3-carboxamide] |
| 62% | Cc1cc(C(=O)NC2CCc3cc(C(=O)NO)ccc3C2)c(C)n1Cc1cccs1 (stereo not shown) [Compound I-48, N-{6-[(hydroxyamino)carbonyl]-1,2,3,4-tetrahydronaphthalen-2-yl}-2,5-dimethyl-1-(2-thienylmethyl)-1H-pyrrole-3-carboxamide] |
| 56% | O=C(NO)c1ccc2c(c1)CCC(NC(=O)C1CCCCC1)C2 (stereo not shown) [Compound I-49, 6-[(cyclohexylcarbonyl)amino]-N-hydroxy-5,6,7,8-tetrahydronaphthalene-2-carboxamide] |
| 70% | Cc1cc(C(=O)NC2CCc3cc(C(=O)NO)ccc3C2)c(C)o1 (stereo not shown) [Compound I-50, N-{6-[(hydroxyamino)carbonyl]-1,2,3,4-tetrahydronaphthalen-2-yl}-2,5-dimethyl-3-furamide] |
| 80% | O=C(NO)c1ccc2c(c1)CCC(NC(=O)c1csc3ccccc13)C2 (stereo not shown) [Compound I-52, N-{6-[(hydroxyamino)carbonyl]-1,2,3,4-tetrahydronaphthalen-2-yl}-1-benzothiophene-3-carboxamide] |
| 87% | O=C(NO)c1ccc2c(c1)CCC(NC(=O)c1ccc3occc3c1)C2 (stereo not shown) [Compound I-54, N-{6-[(hydroxyamino)carbonyl]-1,2,3,4-tetrahydronaphthalen-2-yl}-1-benzofuran-5-carboxamide] |
| 78% | Cc1nc2ccccn2c1C(=O)NC1CCc2cc(C(=O)NO)ccc2C1 (stereo not shown) [Compound I-55, N-{6-[(hydroxyamino)carbonyl]-1,2,3,4-tetrahydronaphthalen-2-yl}-2-methylimidazo[1,2-a]pyridine-3-carboxamide] |
| 59% | O=C(NO)c1ccc2c(c1)CCC(NC(=O)C13CC4CC(CC(C4)C1)C3)C2 (stereo not shown) [Compound I-57, N-{6-[(hydroxyamino)carbonyl]-1,2,3,4-tetrahydronaphthalen-2-yl}adamantane-1-carboxamide] |
| 85% | O=C(NO)c1ccc2c(c1)CCC(NC(=O)c1cnn(-c3ccccc3)c1)C2 (stereo not shown) [Compound I-58, N-{6-[(hydroxyamino)carbonyl]-1,2,3,4-tetrahydronaphthalen-2-yl}-1-phenyl-1H-pyrazole-4-carboxamide] |
| 56% | Cc1oc(-c2ccccc2)cc1C(=O)NC1CCc2cc(C(=O)NO)ccc2C1 (stereo not shown) [Compound I-59, N-{6-[(hydroxyamino)carbonyl]-1,2,3,4-tetrahydronaphthalen-2-yl}-2-methyl-5-phenyl-3-furamide] |
| 84% | COc1ccc(C(=O)NC2CCc3cc(C(=O)NO)ccc3C2)cc1 (stereo not shown) [Compound I-61, N-hydroxy-6-[(4-methoxybenzoyl)amino]-5,6,7,8-tetrahydronaphthalene-2-carboxamide] |
| 75% | Cn1cccc1C(=O)NC1CCc2cc(C(=O)NO)ccc2C1 (stereo not shown) [Compound I-62, N-(6-(hydroxycarbamoyl)-1,2,3,4-tetrahydronaphthalen-2-yl)-1-methyl-1H-pyrrole-2-carboxamide] |
| 18% | O=C(NO)c1ccc2c(c1)CCC[C@H]2NC(=O)c1cc2cc(Cl)ccc2o1 [Compound I-63, 5-chloro-N-{(1R)-6-[(hydroxyamino)carbonyl]-1,2,3,4-tetrahydronaphthalen-1-yl}-1-benzofuran-2-carboxamide] |
| 18% | Cn1c(C(=O)N[C@@H]2CCCc3cc(C(=O)NO)ccc32)cc2ccccc21 [Compound I-64, N-{(1R)-6-[(hydroxyamino)carbonyl]-1,2,3,4-tetrahydronaphthalen-1-yl}-1-methyl-1H-indole-2-carboxamide] |
| 16% | Cn1cccc1C(=O)N[C@@H]1CCCc2cc(C(=O)NO)ccc21 [Compound I-65, (R)-N-(6-(hydroxycarbamoyl)-1,2,3,4-tetrahydronaphthalen-1-yl)-1-methyl-1H-pyrrole-2-carboxamide] |
| 49% | O=C(NO)c1ccc2c(c1)CCCC2 [Compound I-66, N-hydroxy-5,6,7,8-tetrahydronaphthalene-2-carboxamide] |

— patent publication US20140243335A1, “SUBSTITUTED HYDOXAMIC ACIDS AND USES THEREOF” (Millennium Pharmaceuticals, Inc., priority 2010, published 2014)
